# Test results from patent US6897217B2, “2-Alkynyl-and 2-alkenyl-pyrazolo-[4,3-e]-1,2,4-triazolo-[1,5-c]-pyrimidine adenosine A2a receptor antagonists” (Schering Corporation, priority 2003, dated 2005).
# Molecular target: T1, Human A2a Adenosine Receptor (Homo sapiens, UniProt P29274)
# T1 construct: purchased Receptor Biology, Inc., Beltsville, Md; RB-HA2a
# Assay: Human adenosine A2a receptor competition binding assay
# Settings: [3H]-SCH 58261 displacement, human A2a membranes
# Experimental: Human Adenosine A2a and A1 Receptor Competition Binding Assay Protocol
# • A2a: Human A2a Adenosine Receptor membranes, Catalog #RB-HA2a, Receptor Biology, Inc., Beltsville, Md. Dilute to 17 μg/100 μl in membrane dilution buffer (see below). Assay Buffers • Membrane dilution buffer: Dulbecco's Phosphate Buffered Saline (Gibco/BRL)+10 mM MgCl2. • Compound Dilution Buffer: Dulbecco's Phosphate Buffered Saline (Gibco/BRL)+10 mM MgCl2 supplemented with 1.6 mg/ml methyl cellulose and 16% DMSO. Prepared fresh daily. Ligands • A2a: [3H]-SCH 58261, custom synthesis, AmershamPharmacia Biotech, Piscataway, N.J. Stock is prepared at 1 nM in membrane dilution buffer. Final assay concentration is 0.5 nM. • A1: [3H]-DPCPX, AmershamPharmacia Biotech, Piscataway, N.J. Stock is prepared at 2 nM in membrane dilution buffer. Final assay concentration is 1 nM. Non-specific Binding • A2a: To determine non-specific binding, add 100 nM CGS 15923 (RBI, Natick, Mass.). Working stock is prepared at 400 nM in compound dilution buffer. • A1: To determine non-specific binding, add 100 μM NECA (RBI, Natick, Mass.). Working stock is prepared at 400 μM in compound dilution buffer. Compound Dilution • Prepare 1 mM stock solutions of compounds in 100% DMSO. Dilute in compound dilution buffer. Test at 10 concentrations ranging from […] to 30 μM. Prepare working solutions at 4× final concentration in compound dilution buffer. […]
# T1 sequence (P29274 whole entry): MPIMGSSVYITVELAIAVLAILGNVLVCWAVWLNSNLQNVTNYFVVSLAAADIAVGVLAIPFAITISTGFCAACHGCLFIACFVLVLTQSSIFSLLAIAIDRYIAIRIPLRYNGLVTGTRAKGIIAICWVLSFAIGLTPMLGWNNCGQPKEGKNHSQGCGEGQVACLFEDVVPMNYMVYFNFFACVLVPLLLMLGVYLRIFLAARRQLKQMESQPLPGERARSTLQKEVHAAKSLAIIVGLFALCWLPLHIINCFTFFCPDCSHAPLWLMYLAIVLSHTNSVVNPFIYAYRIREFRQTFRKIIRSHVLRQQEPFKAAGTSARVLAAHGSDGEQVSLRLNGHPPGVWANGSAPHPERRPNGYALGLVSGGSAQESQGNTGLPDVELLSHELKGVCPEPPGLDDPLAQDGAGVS
row,SMILES,Ki
1,CC#Cc1nc2c3cnn(CCN4CCN(c5ccc(F)cc5F)CC4)c3nc(N)n2n1 [Example 1-17],2.2 nM
2,CC#Cc1nc2c3cnn(CCN4CCN(c5ccc(OCCOC)cc5F)CC4)c3nc(N)n2n1 [Example 5-4],2.3 nM
